# Assay results as given in ChEMBL document CHEMBL4024706 (Eur J Med Chem, 2017).
# Legend:
# [1] = test system: Receptor-type tyrosine-protein kinase FLT3 (Homo sapiens), P36888 [D835V]; assay: Inhibition of human partial length FLT3 D835V mutant (V592 to Y969 residues) expressed in bacterial expression system assessed as residual activity at 1 uM by Kinomescan method relative to control
# [2] = biological target: SRSF protein kinase 3 (Homo sapiens) (UniProt Q9UPE1); assay: Inhibition of wild-type human partial length SRPK3 (P41 to P567 residues) expressed in bacterial expression system assessed as residual activity at 1 uM by Kinomescan method relative to control
# [3] = biological target: Dual specificity mitogen-activated protein kinase kinase 4 (Homo sapiens) (UniProt P45985); assay: Inhibition of wild-type human partial length MEK4 (S84 to D399 residues) expressed in mammalian expression system assessed as residual activity at 1 uM by Kinomescan method relative to control
# [4] = biological target: Serine/threonine-protein kinase ULK3 (Homo sapiens) (UniProt Q6PHR2); assay: Inhibition of wild-type human partial length ULK3 (M1 to Q290 residues) expressed in mammalian expression system assessed as residual activity at 1 uM by Kinomescan method relative to control
# [5] = test system: Tyrosine-protein kinase ABL1 (Homo sapiens), P00519 [H396P]; assay: Inhibition of human non-phosphorylated ABL1 H396P mutant (S229 to K512 residues) expressed in mammalian expression system assessed as residual activity at 1 uM by Kinomescan method relative to control
# [6] = biological target: Ribosomal protein S6 kinase alpha-6 (Homo sapiens) (UniProt Q9UK32); assay: Inhibition of wild-type human partial length N-terminal RSK4 kinase domain 1 (M1 to E397 residues) expressed in mammalian expression system assessed as residual activity at 1 uM by Kinomescan method relative to control
# [7] = test system: Tyrosine-protein kinase ABL1 (Homo sapiens), P00519 [F317L]; assay: Inhibition of human phosphorylated ABL1 F317L mutant (S229 to K512 residues) expressed in mammalian expression system assessed as residual activity at 1 uM by Kinomescan method relative to control
# [8] = biological target: Mitogen-activated protein kinase 4 (Homo sapiens) (UniProt P31152); assay: Inhibition of wild-type human partial length ERK4 (M1 to L365 residues) expressed in bacterial expression system assessed as residual activity at 1 uM by Kinomescan method relative to control
# [9] = test system: NB-4; assay: Growth inhibition of human NB4 cells; format: functional; conditions: Homo sapiens, NB-4
# [10] = biological target: Hormonally up-regulated neu tumor-associated kinase (Homo sapiens) (UniProt P57058); assay: Inhibition of wild-type human partial length HUNK (A31 to K354 residues) expressed in bacterial expression system assessed as residual activity at 1 uM by Kinomescan method relative to control
# [11] = biological target: Protein-tyrosine kinase 6 (Homo sapiens) (UniProt Q13882); assay: Inhibition of wild-type human partial length BRK (L166 to T451 residues) expressed in bacterial expression system assessed as residual activity at 1 uM by Kinomescan method relative to control
# [12] = biological target: RAC-beta serine/threonine-protein kinase (Homo sapiens) (UniProt P31751); assay: Inhibition of wild-type human partial length AKT2 expressed in bacterial expression system assessed as residual activity at 1 uM by Kinomescan method relative to control
# [13] = biological target: Dual specificity mitogen-activated protein kinase kinase 1 (Homo sapiens) (UniProt Q02750); assay: Inhibition of wild-type human full length MEK1 (M1 to V393 residues) expressed in mammalian expression system assessed as residual activity at 1 uM by Kinomescan method relative to control
# [14] = biological target: Calcium/calmodulin-dependent protein kinase type II subunit beta (Homo sapiens) (UniProt Q13554); assay: Inhibition of wild-type human partial length CAMK2B (M1 to Q380 residues) expressed in bacterial expression system assessed as residual activity at 1 uM by Kinomescan method relative to control
# [15] = biological target: Homeodomain-interacting protein kinase 1 (Homo sapiens) (UniProt Q86Z02); assay: Inhibition of wild-type human partial length HIPK1 (M146 to I555 residues) expressed in mammalian expression system assessed as residual activity at 1 uM by Kinomescan method relative to control
# [16] = biological target: Serine/threonine-protein kinase PLK3 (Homo sapiens) (UniProt Q9H4B4); assay: Inhibition of wild-type human partial length PLK3 (A42 to L334 residues) expressed in mammalian expression system assessed as residual activity at 1 uM by Kinomescan method relative to control
# [17] = biological target: Serine/threonine-protein kinase mTOR (Homo sapiens) (UniProt P42345); assay: Inhibition of wild-type human partial length MTOR (L1382 to W2549 residues) expressed in mammalian expression system assessed as residual activity at 1 uM by Kinomescan method relative to control
# [18] = biological target: Tyrosine-protein kinase Lck (Homo sapiens) (UniProt P06239); assay: Inhibition of wild-type human partial length LCK (R207 to P509 residues) expressed in bacterial expression system assessed as residual activity at 1 uM by Kinomescan method relative to control
# [19] = biological target: Calcium/calmodulin-dependent protein kinase type II subunit delta (Homo sapiens) (UniProt Q13557); assay: Inhibition of wild-type human partial length CAMK2D (M1 to E329 residues) expressed in bacterial expression system assessed as residual activity at 1 uM by Kinomescan method relative to control
# [20] = biological target: Aurora kinase B (Homo sapiens) (UniProt Q96GD4); assay: Inhibition of wild-type human partial length AURKB (D25 to A303 residues) expressed in mammalian expression system assessed as residual activity at 1 uM by Kinomescan method relative to control
# [21] = biological target: Protein kinase C eta type (Homo sapiens) (UniProt P24723); assay: Inhibition of wild-type human partial length PRKCH (S324 to P683 residues) expressed in bacterial expression system assessed as residual activity at 1 uM by Kinomescan method relative to control
# [22] = biological target: Vascular endothelial growth factor receptor 2 (Homo sapiens) (UniProt P35968); assay: Inhibition of wild-type human partial length VEGFR2 (R787 to P1253 residues) expressed in mammalian expression system assessed as residual activity at 1 uM by Kinomescan method relative to control
# [23] = test system: Mast/stem cell growth factor receptor Kit (Homo sapiens), P10721 [A829P]; assay: Inhibition of human partial length KIT A829P mutant (I571 to D952 residues) expressed in mammalian expression system assessed as residual activity at 1 uM by Kinomescan method relative to control
# [24] = biological target: Serine/threonine-protein kinase SIK3 (Homo sapiens) (UniProt Q9Y2K2); assay: Inhibition of wild-type human partial length QSK (A90 to L395 residues) expressed in mammalian expression system assessed as residual activity at 1 uM by Kinomescan method relative to control
# [25] = test system: Pfeiffer; assay: Induction of apoptosis in human Pfeiffer cells assessed as induction of PARP cleavage after 48 hrs by immunoblot; format: functional, cell-based
# [26] = biological target: Myosin light chain kinase (Homo sapiens) (UniProt Q32MK0); assay: Inhibition of wild-type human partial length MLCK (D488 to K800 residues) expressed in bacterial expression system assessed as residual activity at 1 uM by Kinomescan method relative to control
# Tyrosine-protein kinase Lck (Homo sapiens), sequence (P06239 2-509 limits assumed): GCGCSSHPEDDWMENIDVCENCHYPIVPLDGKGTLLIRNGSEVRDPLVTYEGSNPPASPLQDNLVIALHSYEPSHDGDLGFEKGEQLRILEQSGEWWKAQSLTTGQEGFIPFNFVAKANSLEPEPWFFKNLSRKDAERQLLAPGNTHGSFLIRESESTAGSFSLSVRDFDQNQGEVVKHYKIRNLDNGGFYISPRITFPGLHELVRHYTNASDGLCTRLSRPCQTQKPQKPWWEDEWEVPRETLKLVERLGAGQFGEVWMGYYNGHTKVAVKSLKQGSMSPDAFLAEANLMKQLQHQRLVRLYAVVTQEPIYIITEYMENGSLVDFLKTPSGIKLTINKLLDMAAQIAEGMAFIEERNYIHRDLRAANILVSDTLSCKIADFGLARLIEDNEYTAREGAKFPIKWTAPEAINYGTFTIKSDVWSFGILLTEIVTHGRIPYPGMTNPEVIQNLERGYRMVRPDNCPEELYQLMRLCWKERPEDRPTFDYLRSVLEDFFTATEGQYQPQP
# Protein-tyrosine kinase 6 (Homo sapiens), sequence (Q13882 whole entry, looked up, the tested form may be a part): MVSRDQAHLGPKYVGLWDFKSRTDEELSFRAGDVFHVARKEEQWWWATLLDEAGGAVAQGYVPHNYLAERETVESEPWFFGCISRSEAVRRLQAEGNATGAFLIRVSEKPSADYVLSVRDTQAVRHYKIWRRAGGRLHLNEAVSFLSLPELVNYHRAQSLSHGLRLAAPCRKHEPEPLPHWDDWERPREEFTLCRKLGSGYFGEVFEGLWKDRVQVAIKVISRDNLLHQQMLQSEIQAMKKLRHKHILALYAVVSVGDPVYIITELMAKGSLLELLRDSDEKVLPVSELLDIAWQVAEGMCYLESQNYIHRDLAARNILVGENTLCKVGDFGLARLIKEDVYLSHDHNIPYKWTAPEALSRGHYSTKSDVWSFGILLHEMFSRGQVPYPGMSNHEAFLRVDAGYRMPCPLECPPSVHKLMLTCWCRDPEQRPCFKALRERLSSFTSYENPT
# Dual specificity mitogen-activated protein kinase kinase 4 (Homo sapiens), sequence (P45985 whole entry, the tested form may be a part): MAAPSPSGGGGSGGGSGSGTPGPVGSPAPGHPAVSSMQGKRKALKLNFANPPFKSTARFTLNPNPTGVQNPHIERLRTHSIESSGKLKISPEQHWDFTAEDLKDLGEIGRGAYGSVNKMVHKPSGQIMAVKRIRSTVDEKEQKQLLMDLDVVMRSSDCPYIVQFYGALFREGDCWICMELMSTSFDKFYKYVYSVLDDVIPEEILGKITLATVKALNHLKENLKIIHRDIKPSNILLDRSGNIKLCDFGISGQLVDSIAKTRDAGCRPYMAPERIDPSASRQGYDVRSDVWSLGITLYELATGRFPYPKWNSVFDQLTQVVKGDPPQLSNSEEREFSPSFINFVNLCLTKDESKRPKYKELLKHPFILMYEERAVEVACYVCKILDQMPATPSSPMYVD
# Calcium/calmodulin-dependent protein kinase type II subunit beta (Homo sapiens), sequence (Q13554 whole entry, the tested form may be a part): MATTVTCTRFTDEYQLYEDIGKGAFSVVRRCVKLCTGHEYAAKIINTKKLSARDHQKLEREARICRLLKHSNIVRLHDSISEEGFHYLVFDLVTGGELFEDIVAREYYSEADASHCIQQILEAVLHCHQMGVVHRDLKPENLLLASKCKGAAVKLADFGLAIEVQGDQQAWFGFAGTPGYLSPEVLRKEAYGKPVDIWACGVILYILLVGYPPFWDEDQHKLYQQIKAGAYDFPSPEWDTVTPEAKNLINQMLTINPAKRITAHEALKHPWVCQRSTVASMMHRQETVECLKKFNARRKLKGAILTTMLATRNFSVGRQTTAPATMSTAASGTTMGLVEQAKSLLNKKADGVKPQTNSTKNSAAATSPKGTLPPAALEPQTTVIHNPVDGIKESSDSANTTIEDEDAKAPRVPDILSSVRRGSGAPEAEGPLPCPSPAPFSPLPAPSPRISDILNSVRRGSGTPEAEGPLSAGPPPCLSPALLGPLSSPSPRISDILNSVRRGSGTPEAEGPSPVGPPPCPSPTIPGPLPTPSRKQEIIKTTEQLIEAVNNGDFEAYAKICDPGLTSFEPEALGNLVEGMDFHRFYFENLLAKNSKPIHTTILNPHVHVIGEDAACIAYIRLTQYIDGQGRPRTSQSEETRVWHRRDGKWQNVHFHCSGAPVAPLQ
# Protein kinase C eta type (Homo sapiens), sequence (P24723 whole entry, the tested form may be a part): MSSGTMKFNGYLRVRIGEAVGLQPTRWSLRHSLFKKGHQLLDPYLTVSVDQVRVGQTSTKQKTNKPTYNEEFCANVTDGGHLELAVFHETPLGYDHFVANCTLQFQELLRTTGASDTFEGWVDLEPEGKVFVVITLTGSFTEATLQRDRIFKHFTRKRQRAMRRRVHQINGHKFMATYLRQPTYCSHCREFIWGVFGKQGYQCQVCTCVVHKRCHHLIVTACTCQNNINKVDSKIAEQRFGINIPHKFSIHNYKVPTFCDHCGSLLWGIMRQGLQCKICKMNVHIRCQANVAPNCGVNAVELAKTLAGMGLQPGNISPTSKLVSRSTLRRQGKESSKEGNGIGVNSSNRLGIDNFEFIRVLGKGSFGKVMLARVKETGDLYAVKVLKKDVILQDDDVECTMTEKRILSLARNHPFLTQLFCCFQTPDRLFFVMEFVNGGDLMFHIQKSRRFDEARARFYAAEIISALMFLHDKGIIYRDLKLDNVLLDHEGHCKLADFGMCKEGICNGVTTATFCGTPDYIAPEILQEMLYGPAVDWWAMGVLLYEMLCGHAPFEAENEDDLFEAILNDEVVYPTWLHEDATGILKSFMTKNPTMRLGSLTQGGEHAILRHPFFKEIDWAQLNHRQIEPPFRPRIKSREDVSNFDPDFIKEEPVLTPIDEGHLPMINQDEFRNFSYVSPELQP
# Dual specificity mitogen-activated protein kinase kinase 1 (Homo sapiens), sequence (Q02750 whole entry, the tested form may be a part): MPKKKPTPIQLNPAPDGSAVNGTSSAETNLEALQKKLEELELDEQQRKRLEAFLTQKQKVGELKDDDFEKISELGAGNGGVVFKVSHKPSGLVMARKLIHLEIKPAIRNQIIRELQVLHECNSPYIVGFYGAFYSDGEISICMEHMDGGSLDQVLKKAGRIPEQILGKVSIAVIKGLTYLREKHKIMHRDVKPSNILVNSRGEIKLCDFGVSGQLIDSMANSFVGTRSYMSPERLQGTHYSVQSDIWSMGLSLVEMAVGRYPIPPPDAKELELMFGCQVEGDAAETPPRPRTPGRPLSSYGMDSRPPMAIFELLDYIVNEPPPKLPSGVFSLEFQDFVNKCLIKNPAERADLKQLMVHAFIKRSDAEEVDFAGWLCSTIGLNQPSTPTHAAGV
# SRSF protein kinase 3 (Homo sapiens), sequence (Q9UPE1 whole entry, the tested form may be a part): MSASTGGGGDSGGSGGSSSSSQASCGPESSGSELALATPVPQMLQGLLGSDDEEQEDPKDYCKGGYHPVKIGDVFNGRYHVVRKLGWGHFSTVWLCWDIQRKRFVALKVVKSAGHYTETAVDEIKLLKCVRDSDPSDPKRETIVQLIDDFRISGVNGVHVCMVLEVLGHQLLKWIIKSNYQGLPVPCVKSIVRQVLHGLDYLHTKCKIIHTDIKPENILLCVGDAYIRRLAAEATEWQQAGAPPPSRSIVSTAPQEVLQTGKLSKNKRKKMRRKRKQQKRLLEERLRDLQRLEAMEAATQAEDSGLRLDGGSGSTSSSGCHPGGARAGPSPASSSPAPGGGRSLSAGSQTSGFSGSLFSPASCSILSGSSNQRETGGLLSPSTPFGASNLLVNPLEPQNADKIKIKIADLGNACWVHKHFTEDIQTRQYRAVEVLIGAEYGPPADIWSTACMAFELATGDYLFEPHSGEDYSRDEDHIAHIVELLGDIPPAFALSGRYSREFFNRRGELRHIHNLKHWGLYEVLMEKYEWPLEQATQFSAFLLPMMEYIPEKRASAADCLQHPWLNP
# Homeodomain-interacting protein kinase 1 (Homo sapiens), sequence (Q86Z02 whole entry, looked up, the tested form may be a part): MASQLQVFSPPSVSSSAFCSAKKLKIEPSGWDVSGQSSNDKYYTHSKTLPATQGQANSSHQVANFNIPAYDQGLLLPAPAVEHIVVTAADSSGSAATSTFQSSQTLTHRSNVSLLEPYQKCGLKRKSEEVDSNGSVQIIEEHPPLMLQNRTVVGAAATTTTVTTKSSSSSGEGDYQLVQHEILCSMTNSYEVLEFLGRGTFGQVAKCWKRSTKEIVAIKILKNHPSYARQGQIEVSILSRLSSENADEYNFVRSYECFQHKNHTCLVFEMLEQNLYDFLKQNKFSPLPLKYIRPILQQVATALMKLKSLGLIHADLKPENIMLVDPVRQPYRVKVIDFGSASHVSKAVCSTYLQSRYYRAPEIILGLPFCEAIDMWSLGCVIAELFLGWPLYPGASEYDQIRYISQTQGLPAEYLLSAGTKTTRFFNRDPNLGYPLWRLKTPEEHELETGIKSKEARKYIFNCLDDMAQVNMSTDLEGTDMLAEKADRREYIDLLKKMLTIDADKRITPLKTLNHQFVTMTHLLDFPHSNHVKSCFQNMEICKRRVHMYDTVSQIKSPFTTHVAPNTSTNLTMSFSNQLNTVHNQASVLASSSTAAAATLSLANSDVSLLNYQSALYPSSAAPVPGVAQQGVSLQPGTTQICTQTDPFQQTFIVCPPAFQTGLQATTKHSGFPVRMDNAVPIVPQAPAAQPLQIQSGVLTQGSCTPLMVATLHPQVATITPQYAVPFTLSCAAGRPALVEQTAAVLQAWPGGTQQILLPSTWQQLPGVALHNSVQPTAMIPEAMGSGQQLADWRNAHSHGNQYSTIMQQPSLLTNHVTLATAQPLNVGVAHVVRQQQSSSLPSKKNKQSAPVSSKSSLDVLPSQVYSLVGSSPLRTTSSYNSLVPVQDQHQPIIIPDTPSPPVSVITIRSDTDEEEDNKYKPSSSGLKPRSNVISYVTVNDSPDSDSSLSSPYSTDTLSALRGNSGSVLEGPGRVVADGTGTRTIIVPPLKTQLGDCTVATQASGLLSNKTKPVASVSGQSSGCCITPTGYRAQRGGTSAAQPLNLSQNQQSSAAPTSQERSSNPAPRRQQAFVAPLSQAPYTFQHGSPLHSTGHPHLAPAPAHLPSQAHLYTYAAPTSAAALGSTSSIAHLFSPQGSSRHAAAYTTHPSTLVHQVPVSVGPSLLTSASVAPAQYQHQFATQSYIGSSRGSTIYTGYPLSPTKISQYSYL
smiles,measurement,setting,value
C=CC(=O)Nc1cc(Nc2cc(-c3cccc(NC(=O)c4ccc(C(C)(C)C)cc4)c3C)cn(C)c2=O)ccc1C(=O)N1CCOCC1,Activity,[1],70%
same,Activity,[2],81%
same,Activity,[3],86%
same,Activity,[4],99%
same,Activity,[5],100%
same,Activity,[6],90%
same,Activity,[7],97%
same,Activity,[8],95%
same,GI50,[9],6.6 µM
same,Activity,[10],77%
same,Activity,[11],96%
same,Activity,[12],95%
same,Activity,[13],100%
same,Activity,[14],100%
same,Activity,[15],100%
same,Activity,[16],95%
same,Activity,[17],100%
same,Activity,[18],97%
same,Activity,[19],100%
same,Activity,[20],98%
same,Activity,[21],100%
same,Activity,[22],97%
same,Activity,[23],93%
same,Activity,[24],78%
same,Activity,[25],Dose-dependent effect
same,Activity,[26],83%
